Test results taken from patent US20090137565A1, “Method for treatment of movement disorders” (The Trustees of Columbia University in the City of New York, priority 2004, published 2009).

System: severe alcohol-responsive posthypoxic myoclonus
Test: Single-patient open-label dose-finding trial of GHB, blinded Unified Myoclonus Rating Scale (UMRS)
Format: in vivo, human
Details: for UMRS I (Self Assessment) score: max 44, 0 gm score 33; for UMRS VIII (Severity) score: max 3, 0 gm score 2; for UMRS I (Global Disability) score / UMRS VI (MD Global Disab.) score: max 4, 0 gm score 3; for UMRS III (Stimulus-Sens.) score: max 17, 0 gm score 12; for UMRS V (Funct. Performance) score: max 20, 0 gm score 20; for UMRS II (Myoclonus @ Rest) score: max 128, 0 gm score 21; for UMRS IV (Action Myoclonus) score: max 160, 0 gm score 108; for UMRS VII (Neg. Myoclonus) score: present (1) or absent (0), 0 gm score 1
Protocol: An open-label, dose-finding, blinded rating trial of GHB in a single patient with severe, debilitating alcohol-responsive posthypoxic myoclonus refractory to treatment with standard anti-myoclonic agents was conduced. […] Intensity and severity of myoclonus was measured using the Unified Myoclonus Rating Scale (UMRS), a non-invasive clinical rating scale. In addition, the patient was videotaped while the UMRS was performed, so that myoclonus could be scored by a blinded rater.
Given the dramatic response to alcohol, a single-patient, open-label, dose-ranging trial to assess the tolerability and efficacy of GHB (Xyrem®, Orphan Medical, Inc.) as a treatment for alcohol-responsive posthypoxic myoclonus was designed, which was approved by The Columbia University Medical Center Institutional Review Board. After obtaining informed consent, they were videotaped during performance of the Unified Myoclonus Rating Scale (UMRS). The UMRS is a validated clinical rating instrument that measures the severity and intensity of myoclonus and has been used in other trials of anti-myoclonic agents. Frucht S. J., et al., Adv Neurology Vol. 89 Lippincott Williams and Wilkins, Philadelphia, 2002:361-376. The scale consists of eight sections: section I: patient questionnaire (11 items); section II: myoclonus at rest (frequency and amplitude, 16 items); section III: stimulus-sensitive myoclonus (17 items); section IV: severity of myoclonus with action (frequency and amplitude, 20 items); section V: performance on functional tests (5 items); section VI: physician rating of patient's global disability (1 item); section VII: presence of negative myoclonus (1 item); section VIII: severity of negative myoclonus (1 item). Each item is rated on a scale of 0 to 4, with higher scores assigned to myoclonus of greater severity or frequency. For section III stimulus-sensitivity is either present (1) or absent (0); section VII negative myoclonus either present (1) or absent (0); and section VIII negative myoclonus absent (0) to severe (3).
All office visits and the UMRS scale were performed by the supervisory physician. The patient came to the office for five visits, each separated by two weeks (time 0, 2 weeks, 4 weeks, 6 weeks and 8 weeks). At each visit, the physician examined the patient, and inquired about any adverse events. The physician performed the UMRS while the patient was videotaped. Xyrem® was dispensed by the physician at each visit.
At the initial visit the UMRS was performed and videotaped, 1 gm of GHB was administered by mouth, and they were monitored in the office for one hour. They then took 1 gm twice daily for two weeks, at which time they returned to the office. One hour after receiving 2 grams of GHB, the UMRS was performed and videotaped and for the next two weeks they took 2 grams twice daily. Two weeks later, the UMRS was performed and videotaped one hour after receiving 3 grams of GHB, and after two weeks of 3 grams twice daily, the same procedure was performed after receiving 4 grams in the office. After taking 4 grams twice daily for two weeks, they returned for UMRS videotaping, and the decision was made to continue the target dose of 4 gm twice daily.
A movement disorder neurologist blinded to the trial design scored videotapes of the baseline visit, 2 gm, 3 gm, 4 gm (first) and 4 gm (second) visits in random order. The blinded rater was not provided with treatment scores of section I of the UMRS (patient self-assessment) in order to maintain the rating blind. Scores for each section were calculated as described previously. Frucht S. J., et al., Adv Neurology Vol. 89. Lippincott Williams and Wilkins, Philadelphia, 2002:361-376.

O=C([O-])CCCO.[Na+] [GHB, 4-hydroxybutanoic acid monosodium salt]
resting and stimulus-sensitive myoclonus (2 gm twice daily): markedly improved
UMRS I (Self Assessment) score (2 gm, 1 h after oral dose): 31
UMRS VIII (Severity) score (2 gm): 2
UMRS I (Global Disability) score (2 gm): 3
UMRS VI (MD Global Disab.) score (2 gm): 2
UMRS III (Stimulus-Sens.) score (2 gm): 5
UMRS V (Funct. Performance) score (2 gm): 10
UMRS II (Myoclonus @ Rest) score (2 gm): 8
UMRS IV (Action Myoclonus) score (2 gm): 70
UMRS VII (Neg. Myoclonus) score (2 gm): 1
resting and stimulus-sensitive myoclonus (3 gm twice daily): virtually disappeared
UMRS VIII (Severity) score (3 gm): 2
UMRS I (Global Disability) score (3 gm): 2
UMRS VI (MD Global Disab.) score (3 gm): 2
UMRS III (Stimulus-Sens.) score (3 gm): 1
UMRS V (Funct. Performance) score (3 gm): 8
UMRS I (Self Assessment) score (3 gm): 25
UMRS II (Myoclonus @ Rest) score (3 gm): 3
UMRS IV (Action Myoclonus) score (3 gm): 64
UMRS VII (Neg. Myoclonus) score (3 gm): 1
UMRS VIII (Severity) score (4 gm (2nd visit)): 2
UMRS I (Global Disability) score (4 gm (2nd visit)): 2
UMRS VI (MD Global Disab.) score (4 gm (2nd visit)): 2
UMRS III (Stimulus-Sens.) score (4 gm (2nd visit)): 3
UMRS V (Funct. Performance) score (4 gm (2nd visit)): 4
UMRS I (Self Assessment) score (4 gm (2nd visit)): 15
UMRS II (Myoclonus @ Rest) score (4 gm (2nd visit)): 1
UMRS IV (Action Myoclonus) score (4 gm (2nd visit)): 58
UMRS VII (Neg. Myoclonus) score (4 gm (2nd visit)): 1
UMRS VIII (Severity) score (4 gm): 2
UMRS I (Global Disability) score (4 gm): 2
UMRS VI (MD Global Disab.) score (4 gm): 2
UMRS III (Stimulus-Sens.) score (4 gm): 1
UMRS V (Funct. Performance) score (4 gm): 7
UMRS I (Self Assessment) score (4 gm): 18
UMRS II (Myoclonus @ Rest) score (4 gm): 1
UMRS IV (Action Myoclonus) score (4 gm): 53
UMRS VII (Neg. Myoclonus) score (4 gm): 1
myoclonus at rest and stimulus-sensitive myoclonus (UMRS and blinded video rating, divided doses during the day): complete resolution
duration of benefit (after the first 2 gm dose): approximately 3 hours
time at which benefit peaked (after the first 2 gm dose): one
time to marked diminution of myoclonus at rest and stimulus-sensitivity (after the first 2 gm dose): ≤ 20 min
change in clinical examination (after the initial 1 gm dose): Little difference
time of peak effect (each dose greater than or equal to 2 gm): one
negative myoclonus, blinded videotape review (human, in vivo): did not confirm the examiner's impression that negative myoclonus improved
improvement of functional performance (section V) (writing, spiral copying, pouring, using a spoon): 80%
